Measurements: patent US8981111B2 (priority 2008, dated 2015)
Each block holds one compound with its values, some of them ahead of it.

Experiment: log P (HPLC/MS data of the preparation examples)
Details: for chromatographic logP: HCOOH (formic acid); for log p: linear gradient 10% to 95% acetonitrile
[1] = HPLC (LC-MS) method [b]: pH 2.7, 0.1% formic acid in water and acetonitrile, EEC directive 79/831 Annex V.A8
[2] = method [b]: LC-MS at pH 2.7, 0.1% formic acid in water / acetonitrile
[3] = LC-MS, method [b]: pH 2.7 with 0.1% formic acid in water and acetonitrile

Compound: Cc1nocc1C(=NOC(=O)c1ccccn1)c1cccs1 [({[(3-methyl-1,2-oxazol-4-yl)(2-thienyl)methylene]amino}oxy)(pyridin-2-yl)methanone]
chromatographic logP: 2.25

Compound: CCCCCC(=O)Nc1cccc(CON=C(c2ccsc2)c2cncn2C)n1 (single isomer, unassigned) [Example 427]
log p [1]: 1.99^[b]

Compound: Cn1cncc1C(=NOCc1cccc(N2C(=O)c3ccccc3C2=O)n1)c1ccsc1 [Example 417]
log p [1]: 1.73^[b]

Compound: Cn1cncc1C(=O)c1ccsc1 [(1-methyl-1H-imidazol-5-yl)(3-thienyl)methanone]
chromatographic logP: 0.43

Compound: Cn1ncnc1C(=NOCc1cccc(CN)n1)c1ccccc1 [Example 162]
log p [2]: 0.99^[b]

Compound: CCCCCOC(=O)Nc1nc(CON=C(c2ccsc2)c2cncn2C)cs1 (single isomer, unassigned) [Example 462]
log p [1]: 2.23^[b]

Compound: Cc1cnc(C)c(C(=O)c2ccccc2)n1 [(3,6-dimethylpyrazin-2-yl)(phenyl)methanone]
chromatographic logP: 2.18

Compound: CCCCCC(=O)Nc1cccc(CON=C(c2ccccc2)c2cncn2C)n1 [Example 120]
log p [3]: 2.11^[b]

Compound: 2-methyl-N-{4-[({[(1-methyl-1H-imidazol-5-yl)(phenyl)methylene]amino}-oxy)methyl]-1,3-thiazol-2-yl}propanamide [Example 143]
log P(HCOOH): 1.63 | log p [2]: 1.11^[b]

Compound: Cn1cncc1C(=NOCc1csc(N)n1)c1ccsc1 [Example 422]
log p [1]: 0.45^[b]

Compound: CCCCCC(=O)Nc1nc(CON=C(c2ccccc2)c2cnnn2C)cs1 [Example 85]
log p [3]: 3.44^[b]

Compound: Cn1cncc1C(=NOCc1cccc(NC(=O)C(C)(C)C)n1)c1ccccc1 (single isomer, unassigned) [Example 126]
log p [3]: 1.85^[b]

Compound: Cc1cc(C(F)(F)F)nn1CC(=O)Nc1cccc(CON=C(c2ccccc2)c2nc(C(F)(F)F)nn2C)n1 [Example 186]
log p [2]: 4.31^[b]

Compound: Cc1ccccc1C(=NOCc1cccc(NC(=O)C(C)(C)C)n1)c1ncnn1C [Example 25]
log p [3]: 3.06^[b]

Compound: CC(C)CC(=O)Nc1nc(CON=C(c2ncc(C(F)(F)F)cc2Cl)c2ncnn2C)cs1 [Example 484]
log p [1]: 3.19^[b]

Compound: N-{2-[({[(1-methyl-1H-imidazol-2-yl)(phenyl)methylene]amino}-oxy)methyl]pyrimidin-4-yl}cyclopropanecarboxamide [Example 193]
log P(HCOOH): 1.50 | log p [2]: 1.54^[b]

Compound: COc1ccc(CC(=O)Nc2cccc(CON=C(c3ccccc3)c3ncnn3C)n2)cc1 [Example 246]
log p [2]: 3.02^[b]

log P(HCOOH): 5.03 | log p [1]: 1.69^[b]
Compound: N-(6-{[({(3-bromo-4-methoxyphenyl)[3-chloro-5-(trifluoromethyl)pyridin-2-yl]methylene}amino)oxy]methyl}pyridin-2-yl)-3-methylbutanamide [Example 444]

Compound: Cc1nocc1C(=NO)c1cccs1 [N-hydroxy-1-(3-methyl-1,2-oxazol-4-yl)-1-(2-thienyl)methanimine]
chromatographic logP: 1.75

Compound: CC(C)CC(=O)Nc1nc(CON=C(c2ccccc2)c2ncnn2C)cs1 [Example 96]
log p [3]: 2.88^[b]

Compound: Cn1cncc1C(=NOCc1cccc(NC(=O)C(C)(C)C)n1)c1ccccc1 (single isomer, unassigned) [Example 123]
log p [3]: 2.1^[b]

Compound: C#CCCOC(=O)Nc1cccc(CON=C(c2ccccc2)c2ncnn2C)n1 [Example 94]
log p [3]: 2.82^[b]

Compound: CC(C)CCC(=O)Nc1cccc(CON=C(c2ccccc2)c2nccn2C)n1 [Example 329]
log p [3]: 2.15^[b]

Compound: CCCCC(=O)Nc1ccnc(CON=C(c2ccccc2)c2nccn2C)n1 [Example 59]
log p [3]: 1.95^[b]

Compound: CCCCCC(=O)Nc1cccc(CON=C(c2ccccc2)c2snnc2C)n1 [Example 216]
log p [2]: 4.46^[b]

Compound: CCCC(=O)Nc1nc(CON=C(c2cccs2)c2cncn2C)cs1 [Example 451]
log p [1]: 1.47^[b]

Compound: Cn1ncnc1C(=NOCc1cccc(NC(=O)C2CC2)n1)c1ccccc1 [Example 27]
log p [3]: 2.41^[b]

Compound: Cn1cncc1C(=NOCc1csc(N)n1)c1cccs1 [Example 421]
log p [1]: 0.22^[b]
